Source: patent publication US11014902B2, “MYC G-quadruplex stabilizing small molecules and their use” (The United States of America, as represented by the …, priority 2015, dated 2021)

Assays:
[1] = tested on: CA46 Burkitt's Lymphoma line; assay: CA46 cell viability; assay type: cell-based, human
Experimental: Since two thirds of multiple myeloma cases involve deregulated c-MYC expression (Kuehl and Bergsagel, Blood 2012, 120, 2351; Shou, et al., Proc Natl Acad Sci USA 2000, 97, 228), we elected to evaluate the cell viability effects of Compound 1 in a multiple myeloma model. […] This suppression was maintained over 72 hours, which is notable given the characteristic rapid replenishment of the protein—a phenomenon that complicates targeting c-Myc at the protein level (FIG. 4C). This effect was maintained across a genetically diverse set of 4 multiple myeloma lines. We observed decreases in c-MYC translation in all lines tested, and this effect also correlated with decreases in viability (FIG. 4D).
Human multiple myeloma and Burkitt's Lymphoma cell lines L363, CA46, MM-1R, KMS-11, and MM-1S were cultured and authenticated as previously described (Simmons, et al., Molecular oncology 2014, 8, 261). All plasma derived cell lines were cultured in RPMI-1640 (2 mM L-glutamine, 10% fetal bovine serum (FBS), 100 U/ml penicillin, 100 μg/ml streptomycin: Gibco) and incubated at 37° C. with 5% CO2. […] MTS reagent was then directly added, incubated at 37° C. for 90 min, and absorbance of MTS formazan was read at 500 nm on an Omega 640 spectrophotometer. Percentage cell viability was normalized to the absorbance of untreated (DMSO) wells. […]

myeloma cells = assay: Senescence in myeloma cells; assay type: cell-based, human; conditions: 10 μM, after 72 hours
AMO1 = assay: Multiple myeloma cell viability; assay type: cell-based; conditions: Homo sapiens
Experimental: (§1) Human multiple myeloma and Burkitt's Lymphoma cell lines L363, CA46, MM-1R, KMS-11, and MM-1S were cultured and authenticated as previously described (Simmons, et al., Molecular oncology 2014, 8, 261). All plasma derived cell lines were cultured in RPMI-1640 (2 mM L-glutamine, 10% fetal bovine serum (FBS), 100 U/ml penicillin, 100 μg/ml streptomycin: Gibco) and incubated at 37° C. with 5% CO2. Viability experiments were performed in quadruplicate on 96-well plates (Costar) at designated time and dose points. MTS reagent was then directly added, incubated at 37° C. for 90 min, and absorbance of MTS formazan was read at 500 nm on an Omega 640 spectrophotometer. Percentage cell viability was normalized to the absorbance of untreated (DMSO) wells. In the case of cells harvested for their protein or RNA, pellets were flash frozen and stored at −80° C. overnight prior to use.
(§2) Additional multiple myeloma cell lines were assayed for cell viability in the presence of Compound 23, and the following IC50 values were determined.

ARD = assay: Multiple myeloma cell viability; assay type: cell-based
Experimental: as §1, §2

JIM1 = assay: Multiple myeloma cell viability; assay type: cell-based
Experimental: as §1, §2

KMM1 = assay: Multiple myeloma cell viability; assay type: cell-based; conditions: KMM-1
Experimental: as §1, §2

KMS12PE = assay: Multiple myeloma cell viability; assay type: cell-based; conditions: Homo sapiens, KMS-12-PE
Experimental: as §1, §2

KMS27 = assay: Multiple myeloma cell viability; assay type: cell-based; conditions: KMS-27
Experimental: as §1, §2

[2] = tested on: c-Myc protein in H1299 cells; assay: c-Myc protein expression by Western blot, H1299; assay type: cell-based, human; conditions: 10 μM
Experimental: The effect of Compound 23 on the expression of c-Myc protein in the human lung cancer cell lines H1299 and H157 was also assayed. H1299 and H157 cells were treated with 10 μM Compound 23 and c-Myc protein expression levels quantified by Western blot. In Compound 23-treated H1299 cells, c-Myc protein expression levels were approximately 55% compared to untreated control cells. In Compound 23-treated H157 cells, c-Myc protein expression levels were approximately 74% compared to untreated control cells.

Structure (SMILES)	cell viability [1]	senescent state (myeloma cells)	IC50 (AMO1) [µM]	IC50 (ARD) [µM]	IC50 (JIM1) [µM]	IC50 (KMM1) [µM]	IC50 (KMS12PE) [µM]	IC50 (KMS27) [µM]	c-Myc protein expression levels compared to untreated control cells [2]
Cc1ccc(NC(=O)c2c(C)oc3ccc(O)c(CN4CCCCCC4)c23)cc1 [Compound 1]	negligible changes	triggered a senescent state							
Cc1oc2ccc(O)c(CN3CCCCCC3)c2c1C(=O)Nc1ccc(C(F)(F)F)cc1 [Compound 23]			5.92	5.75	6.35	4.13	5.33	5.06	approximately 55%
